The term MIC denotes the least concentration at which growth counts as inhibited. In general, IC50 refers to the concentration that gives 50% inhibition. The low end stands for higher potency, the high end for lower potency. Usually EC90 stands for the concentration at which the effect reaches the 90% level. Low readings indicate an effect from little substance, high ones a need for much substance. As usually defined, the EC99 is the concentration at which the effect reaches the 99% level.

Experiment [1] deals with Mycobacterium tuberculosis. Nature of the experiment: Antimycobacterial activity against Mycobacterium tuberculosis H37Rv by broth microdilution alamar blue assay. The format is functional. (Broth dilution looks for growth in wells or tubes with falling amounts of substance.)
Another experiment deals with Vero. Nature of the experiment: Cytotoxicity against Vero cells. The format is cell-based. The settings on record: Chlorocebus sabaeus.
A short description of experiment [2]: Selectivity index, IC50 for Vero cells to MIC for Mycobacterium tuberculosis H37Rv. Type of experiment: functional.
Experiment [3] has as its system Mycobacterium tuberculosis. In words: Reduction of Mycobacterium tuberculosis H37Rv growth in mouse peritoneal macrophage monolayers after 7 days. The format is functional. The settings on record: 168 h.
Experiment [4] deals with Mycobacterium tuberculosis. In words: Antimycobacterial activity against Mycobacterium tuberculosis at 12.5 ug/ml. The format is functional. The note with it: read-out: GI.

Each structure is given as a SMILES string. Converted amounts (≈) assume the structure as drawn.

The compound `C=CCNC(=O)C1(OC(=O)c2cccnc2)CCN(Cc2ccccc2)CC1` showed a minimal inhibitory concentration (MIC) in experiment [1] of 6.25 µg/mL (≈ 16.5 µM). The IC50 with Vero is above 62.5 µg/mL. The compound also yielded a Selectivity index in experiment [2] above 10.
Turning to `CC(C)CCN(C(=O)c1cccnc1)C(C(=O)NCc1cccnc1)c1ccccc1` (centres undefined), in experiment [1], the minimal inhibitory concentration (MIC) came out at 3.13 µg/mL (≈ 7.51 µM). In the experiment on Vero, this compound returned an IC50 of 50.3 µg/mL (≈ 121 µM). In addition, the Selectivity index in experiment [2] came to 16.1. Further, in experiment [3], the concentration for an effect of 90% (EC90) is above 12.5 µg/mL and the concentration for an effect of 99% (EC99) was above 12.5 µg/mL.
In experiment [1], `C=CCNC(=O)C(CCCC)N(CC=C)C(=O)c1cccnc1.Cl` (centres undefined) displayed an MIC of 3.13 µg/mL. This compound also registered an IC50 in the experiment with Vero of 31.1 µg/mL. In experiment [2], this compound gave a Selectivity index of 9.9.
Turning to `CCCCC(C(=O)NCc1ccccc1)N(C(=O)c1cnccn1)C1CCCCC1` (centres undefined), it took 3.13 µg/mL (≈ 7.66 µM) to inhibit growth in experiment [1] (MIC). Further, it took 27.9 µg/mL (≈ 68.3 µM) to reach half-maximal inhibition in the experiment on Vero (IC50). This compound also displayed a Selectivity index in experiment [2] of 9.9.
Take `C=CCNC(=O)C1(N(CCCn2ccnc2)C(=O)c2cccnc2)CCN(Cc2ccccc2)CC1`: in experiment [4], the inhibition of growth at 12.5 µg/mL was found to be 46%.
Turning to `C=CCNC(=O)C1(N(CCCN2CCOCC2)C(=O)c2cccnc2)CCN(Cc2ccccc2)CC1`, the inhibition of growth at 12.5 µg/mL in experiment [4] was 33%.
Same read-out and setting: the same measure for `C=CCNC(=O)C(CCCC)N(CCCn1ccnc1)C(=O)c1cccnc1` (centres undefined): 89%; for `C=CCNC(=O)C(N(CC(C)(C)C)C(=O)c1cccnc1)C(Cl)(Cl)Cl` (centres undefined): 74%; for `C=CCNC(=O)C(CCCCC)N(C(=O)c1cccnc1)C(C)c1ccccc1` (centres undefined): 95%.
On the same count and under the same terms, for `C=CCNC(=O)C(C)(C)N(C(=O)c1cccnc1)C1CC1` the value was 64%.
On the same count and under the same terms, for `C=CCNC(=O)C(C=C)(CC)N(C(=O)c1cccnc1)C1CCCCC1` (centres undefined) the value was 84%; for `C=CCNC(=O)C1(N(C(=O)c2cccnc2)C2CC2)CCN(Cc2ccccc2)CC1`, 43%; for `C=CCNC(=O)C(C(C)C)N(CC=C)C(=O)c1cccnc1` (centres undefined), 6%.
As for `C=CCNC(=O)C(N(CCCn1ccnc1)C(=O)c1cccnc1)C(F)(F)F` (centres undefined), in experiment [4], the inhibition of growth at 12.5 µg/mL came out at 71%.
